Experimental data from ChEMBL document CHEMBL4808253, “Discovery of 1,3,4-oxadiazole derivatives as potential antitumor agents inhibiting the programmed cell death-1/programmed cell death-ligand 1 interaction” (Bioorg Med Chem, 2021).
The source made the active and inactive calls. No cut-off for these calls is given here.

Legend:
[1] = target: T1, Programmed cell death protein 1/Programmed cell death 1 ligand 1 (Homo sapiens, UniProt Q15116+Q9NZQ7); assay: Inhibition of PD1/PD-L1 (unknown origin); assay type: protein-complex assay
[2] = target: T1, Programmed cell death protein 1/Programmed cell death 1 ligand 1; assay: Inhibition of PD1/PD-L1 (unknown origin) protein-protein interaction measured after 135 mins by TR-FRET assay relative to control; assay type: protein-complex assay
[3] = Toxicity in BALB/c mouse allografted with mouse CT26 cells assessed as body weight change at 30 mg/kg, ip for 48 hrs measured for 14 days relative to control; assay type: organism-based; conditions: in vivo, 336 h, time 14 day
[4] = Toxicity in BALB/c mouse allografted with mouse CT26 cells assessed as unusual behaviour at 30 mg/kg, ip for 48 hrs measured for 14 days relative to control; assay type: organism-based; conditions: in vivo, 336 h, time 14 day
CT26 [5] = assay: Antitumor activity against mouse CT26 cells allografted in BALB/c mouse assessed as tumor growth inhibition at 30 mg/kg, ip for 48 hrs measured for 14 days relative to control; assay type: functional; conditions: 336 h, time 14 day, read-out: TGI
CT26 [6] = assay: Antitumor activity against […] in BALB/c mouse assessed as increase in infiltration of CD4+ T cells into tumor cells at 15 mg/kg, ip for 48 hrs in presence of 5-Fu by immunohistochemistry analysis; assay type: functional, organism-based
[7] = Toxicity in BALB/c mouse allografted with mouse CT26 cells assessed as body weight change at 15 mg/kg, ip for 48 hrs measured for 14 days relative to control; assay type: organism-based; conditions: in vivo, 336 h, time 14 day
CT26 [8] = assay: Antitumor activity against […] in BALB/c mouse assessed as increase in infiltration of CD4+ T cells into tumor cells at 15 mg/kg, ip for 48 hrs measured for 14 days relative to control; assay type: functional, organism-based
[9] = Toxicity in BALB/c mouse allografted with mouse CT26 cells assessed as unusual behaviour at 15 mg/kg, ip for 48 hrs measured for 14 days relative to control; assay type: organism-based; conditions: in vivo, 336 h, time 14 day
CT26 [10] = assay: Antiproliferative activity against mouse CT26 cells assessed as inhibition of cell growth incubated for 48 hrs by MTT assay; assay type: functional, cell-based; conditions: CT26, 48 h
CT26 [11] = assay: Antitumor activity against mouse CT26 cells allografted in BALB/c mouse assessed as tumor growth inhibition at 15 mg/kg, ip for 48 hrs measured for 14 days in presence of 5-Fu relative to control; assay type: functional; conditions: read-out: TGI
CT26 [12] = assay: Antiproliferative activity against […] cells assessed as inhibition of cell growth at 11.11 uM incubated for 48 hrs by MTT assay; assay type: functional; conditions: Mus musculus
CT26 [13] = assay: Antitumor activity against mouse CT26 cells allografted in BALB/c mouse assessed as tumor growth inhibition at 15 mg/kg, ip for 48 hrs measured for 14 days relative to control; assay type: functional; conditions: 336 h, time 14 day, read-out: TGI
CT26 [14] = assay: Antitumor activity against mouse CT26 cells allografted in BALB/c mouse assessed as tumor growth inhibition at 15 mg/kg, ip for 24 hrs measured for 14 days relative to control; assay type: functional; conditions: 336 h, time 14 day, read-out: TGI
[15] = Toxicity in BALB/c mouse allografted with mouse CT26 cells assessed as body weight change at 15 mg/kg, ip for 24 hrs measured for 14 days relative to control; assay type: organism-based; conditions: in vivo, 336 h, time 14 day
[16] = Toxicity in BALB/c mouse allografted with mouse CT26 cells assessed as unusual behaviour at 15 mg/kg, ip for 24 hrs measured for 14 days relative to control; assay type: organism-based; conditions: in vivo, 336 h, time 14 day

T1 sequence (Q15116 whole entry): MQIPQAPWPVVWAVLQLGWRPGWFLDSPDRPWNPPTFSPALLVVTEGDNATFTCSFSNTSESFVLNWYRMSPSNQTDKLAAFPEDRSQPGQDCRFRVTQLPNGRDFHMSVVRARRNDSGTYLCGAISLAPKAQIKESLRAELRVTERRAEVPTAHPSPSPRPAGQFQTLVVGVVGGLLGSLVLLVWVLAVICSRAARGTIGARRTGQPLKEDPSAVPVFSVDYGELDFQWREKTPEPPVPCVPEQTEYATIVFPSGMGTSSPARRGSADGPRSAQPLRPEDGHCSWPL
T1 sequence (Q9NZQ7 whole entry): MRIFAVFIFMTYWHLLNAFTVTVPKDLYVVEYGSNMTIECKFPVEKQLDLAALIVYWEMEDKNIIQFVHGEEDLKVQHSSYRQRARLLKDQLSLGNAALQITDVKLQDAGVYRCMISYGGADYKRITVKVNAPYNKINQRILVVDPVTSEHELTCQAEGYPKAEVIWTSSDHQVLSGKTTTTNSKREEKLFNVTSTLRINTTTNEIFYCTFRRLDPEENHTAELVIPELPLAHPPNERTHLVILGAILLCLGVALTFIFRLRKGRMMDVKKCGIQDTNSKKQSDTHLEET

**Q.** Which IC50 [1] does the source give for `Cc1c(-c2nc3cc(CN4CCCC[C@H]4C(=O)O)cc(Cl)c3o2)cccc1-c1cccc(NC(=O)c2ccc(CNCCO)cn2)c1Cl` here?
**A.** < 10 nM

**Q.** Which IC50 [1] does the source give for `CS(=O)(=O)c1cncc(COc2nc(O[C@H]3CCc4c(-c5cccc6c5CC[C@@H]6Oc5nc(OCc6cncc(S(C)(=O)=O)c6)c(CN6C[C@@H](O)C[C@H]6C(=O)O)cc5Cl)cccc43)c(Cl)cc2CN2C[C@@H](O)C[C@H]2C(=O)O)c1` here?
**A.** 0.051 nM

**Q.** Which IC50 [2] does the source give for `Cc1c(COc2ccc(CNC(CO)(CO)CO)c(OCc3nc(-c4ccc(F)cc4)cs3)c2)cccc1-c1cccc(OCCCN2CCC(CO)CC2)c1` here?
**A.** 398 nM

**Q.** With `O=c1[nH]cc(F)c(=O)[nH]1` [FLUOROURACIL] as the compound, how does the Activity [3] read?
**A.** Non-Toxic

**Q.** And the Activity [4]?
**A.** Non-Toxic

**Q.** What about the inhibition in vivo at 30 mg/kg (CT26 [5]) of the same compound?
**A.** 29.8%

**Q.** For `Cc1ccccc1-c1cccc(COc2ccc(CNC(CO)(CO)CO)c(OCc3nnc(-c4ccccc4)o3)c2)c1C`, which IC50 [2] is on record?
**A.** 150 nM

**Q.** For `Cc1c(COc2ccc(CNC(CO)(CO)CO)c(OCc3nnc(-c4ccccc4)o3)c2)cccc1-c1cccc(OCCCN2CCC(CO)CC2)c1`, which Activity (CT26 [6]) is on record?
**A.** Active

**Q.** What about the Activity [7] of the same compound?
**A.** Non-Toxic

**Q.** What about the Activity (CT26 [8]) of the same compound?
**A.** Active

**Q.** What about the Activity [9] of the same compound?
**A.** Non-Toxic

**Q.** And the IC50 (CT26 [10])?
**A.** 19800 nM

**Q.** What about the inhibition in vivo at 15 mg/kg (CT26 [11]) of the same compound?
**A.** 64.6%

**Q.** And the IC50 [2]?
**A.** 38 nM

**Q.** And the inhibition at 11.11 µM (CT26 [12])?
**A.** 75%

**Q.** What about the inhibition in vivo at 15 mg/kg (CT26 [13]) of the same compound?
**A.** 35.7%

**Q.** For `Cc1c(-c2nc3cc(CN4CC[C@@](C)(C(=O)O)C4)cc(C#N)c3o2)cccc1-c1cccc(NC(=O)c2nc3c(n2C)CCN(C[C@@H](C)O)C3)c1Cl`, which IC50 [1] is on record?
**A.** < 10 nM

**Q.** With `Cc1c(COc2ccc(CNC(CO)(CO)CO)c(OCc3nc(-c4ccc(F)cc4)cs3)c2)cccc1-c1cccc(OCCCN2CCC(O)CC2)c1C` as the compound, how does the IC50 [2] read?
**A.** 167 nM

**Q.** Which inhibition in vivo at 15 mg/kg (CT26 [14]) does the source give for `COc1nc(OCc2cccc(-c3ccccc3)c2C)ccc1CNCCNC(C)=O` here?
**A.** 22.9%

**Q.** What about the Activity [15] of the same compound?
**A.** Non-Toxic

**Q.** What about the IC50 (CT26 [10]) of the same compound?
**A.** 3350 nM

**Q.** What about the inhibition at 11.11 µM (CT26 [12]) of the same compound?
**A.** 75%

**Q.** And the Activity [16]?
**A.** Non-Toxic

**Q.** With `Cc1c(COc2ccc(CNC(CO)(CO)CO)c(OCc3nnc(-c4ccccc4)o3)c2)cccc1-c1cccc(OCCCN2CCOCC2)c1` as the compound, how does the IC50 [2] read?
**A.** 642 nM

**Q.** For `C[C@@](CO)(NCc1cc(Cl)c(O[C@H]2CCc3c(-c4cccc5c4CC[C@@H]5Oc4nc(OCc5cncc(S(C)(=O)=O)c5)c(CN[C@@](C)(CO)C(=O)O)cc4Cl)cccc32)nc1OCc1cncc(S(C)(=O)=O)c1)C(=O)O`, which IC50 [1] is on record?
**A.** 0.058 nM
